Results as given in paper PMC4537050, “A long pentraxin-3-derived pentapeptide for the therapy of FGF8b-driven steroid hormone-regulated cancers” (Oncotarget, 2015).

Legend:
FGF6 = biological target: T1, FGF6 (Homo sapiens, UniProt P10767); assay: SPR analysis of FGF/ARPCA interaction, FGF6; type: binding; conditions: immobilized FGF6
T1 sequence (P10767 38-208): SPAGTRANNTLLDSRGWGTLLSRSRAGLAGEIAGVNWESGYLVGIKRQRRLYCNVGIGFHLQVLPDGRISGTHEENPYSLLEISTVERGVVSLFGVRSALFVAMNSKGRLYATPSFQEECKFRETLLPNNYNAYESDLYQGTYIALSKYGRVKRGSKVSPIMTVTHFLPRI

[1] = tested on: FGFR1 phosphorylation in HUVECs; assay: FGFR1 phosphorylation in FGF8b-stimulated HUVECs (immunofluorescence); type: cell-based, human; conditions: 30 ng/ml FGF8b, 60 μM peptide
Description: HUVECs were seeded in Ibidi® μ-Slide 8 wells (Ibidi, Martinsried, Germany, EU) at a density of 30000 cells/cm^2, starved in 2.5% FBS for 24 h and stimulated for 20 minutes with 30 ng/ml of FGF8b in the absence or presence of ARPCA or ARPVA. Following stimulation, cells were washed twice in PBS, fixed in cold acetone for 5 minutes and permeabilized with 0.2% Triton-X100 in PBS for 2 minutes at room temperature (RT). After washing in PBS, cells were blocked for 10 minutes at RT in 1% BSA and then incubated with rabbit anti-pFGFR1 or rabbit anti-FGFR1 antibodies (Santa Cruz Biotechnology) for 1 h at RT. After washing in PBS, cells were incubated with AlexaFluor 594-conjugated anti-rabbit antibody (Invitrogen) and DAPI for 30 minutes at RT. Finally, cells were examined under a Zeiss Fluorescence Axiovert 200M microscope (Carl Zeiss).

S115 cells = assay: S115 cell proliferation assay; type: cell-based, mouse; conditions: 30 ng/ml FGF8b or 10 nM DHT, 48 h, viable cell counting
Description: HUVECs were seeded at 18000 cells/cm^2 in medium containing 2.5% FBS and stimulated with 30 ng/ml FGF8b in the absence or presence of increasing concentrations of ARPCA or ARPVA. S115 cells were seeded at 15000 cells/cm^2 in medium containing 4% hormone-deprived dextran-coated charcoal-stripped heat inactivated FBS, followed by 24 h serum starvation in 1:1 mixture of serum-free Ham's F12 and DMEM. Cells were stimulated for 48 h with 30 ng/ml FGF8b or 10 nM DHT in the presence or absence of different concentrations of ARPCA or ARPVA (as specified in the corresponding figures). Viable cell counts were obtained by the counting function of the MACSQuant® Analyzer (Miltenyi Biotec, Bergisch-Gladbach, Germany, EU).

[2] = In vivo ARPCA toxicity studies
Description: Eight week-old C57BL/6 mice were treated i.p. with 100 mg/kg of ARPCA every other day for two weeks. During this period, animals were weighted for body weight variation analysis. At the end of treatment, whole blood and serum were harvested and analysed for blood components, biochemical serum parameters and circulating levels of FGF23. The serum levels of FGF23 were assessed by ELISA (Uscn Life Science Inc., Wuhan, PRC, Asia) according to manufacturer's instructions. Untreated mice were used as reference/control.

With Ac-ARPCA-NH2 [ARPCA, Ac-ARPCA-NH2] the “Kd, FGF6” value (FGF6) was “n.b”, the “FGFR1 phosphorylation triggered by FGF8b in HUVECs” value [1] was “efficiently impairs FGFR1 phosphorylation” and the “mitogenic response of S115 cells to FGF8b or DHT” value (S115 cells) was “impairs the mitogenic response”. For the same substance, the body weight ([2]; i.p. 100 mg/kg every other day for two weeks) was “did not affect” and the “hematologic parameters, blood serum components and FGF23 serum levels (in words)” value ([2]; long-term administration, i.p. 100 mg/kg every other day) was “did not affect”.
